Earlier results as cited in patent US5362498A, “Process for preparing a bioadhesive pharmaceutical dosage form and pharmaceutical dosage form thus prepared” (priority 1990, dated 1994).

Conditions: metabolite produced by digestive tract absorption of morphinic active principles

## CN1CC[C@]23c4c5ccc(O)c4O[C@H]2[C@@H](O[C@@H]2O[C@H](C(=O)O)[C@@H](O)[C@H](O)[C@H]2O)C=C[C@H]3[C@H]1C5 [morphine 6-glucuronide]
  relative potency: 1.5 times
